Consider 19 molecules from ChEMBL document CHEMBL5370603, “N-(2-Aminophenyl)-benzamide Inhibitors of Class I HDAC Enzymes with Antiproliferative and Antifibrotic Activity” (J Med Chem, 2023).

pIC50: −log10 of the molar value.

One test concerns the target Histone deacetylase 1 (Homo sapiens, UniProt Q13547). Kind of test: Inhibition of human recombinant HDAC1 using Ac-Leu-Gly-Lys(Ac)-AMC as substrate preincubated with enzyme for 30 mins followed by substrate addition and measured after 90 mins by fluorescence based analysis.
In another test the target is Histone deacetylase 2 (Homo sapiens, UniProt Q92769). As to the kind of experiment: Inhibition of human recombinant HDAC2 using Ac-Leu-Gly-Lys(Ac)-AMC as substrate preincubated with enzyme for 30 mins followed by substrate addition and measured after 90 mins by fluorescence based analysis.
Chain of Histone deacetylase 2 (Q92769 whole entry): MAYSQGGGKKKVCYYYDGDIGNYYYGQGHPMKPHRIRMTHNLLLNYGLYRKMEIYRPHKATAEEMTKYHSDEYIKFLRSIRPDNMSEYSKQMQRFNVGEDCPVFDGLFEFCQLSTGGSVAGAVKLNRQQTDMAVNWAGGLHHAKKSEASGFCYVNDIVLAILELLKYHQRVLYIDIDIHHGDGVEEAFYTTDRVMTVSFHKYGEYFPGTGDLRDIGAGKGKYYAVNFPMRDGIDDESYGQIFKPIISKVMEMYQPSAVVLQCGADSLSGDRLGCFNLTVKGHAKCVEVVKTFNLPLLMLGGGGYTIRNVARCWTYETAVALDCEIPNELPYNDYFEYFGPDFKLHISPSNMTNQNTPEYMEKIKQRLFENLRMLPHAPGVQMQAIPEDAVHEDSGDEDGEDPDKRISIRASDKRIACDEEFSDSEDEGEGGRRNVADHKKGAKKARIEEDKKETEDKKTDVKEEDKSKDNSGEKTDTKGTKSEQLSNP
The target of test [1] is T1, Protein deacetylase HDAC6 (Homo sapiens, UniProt Q9UBN7).
T1 sequence (Q9UBN7 whole entry): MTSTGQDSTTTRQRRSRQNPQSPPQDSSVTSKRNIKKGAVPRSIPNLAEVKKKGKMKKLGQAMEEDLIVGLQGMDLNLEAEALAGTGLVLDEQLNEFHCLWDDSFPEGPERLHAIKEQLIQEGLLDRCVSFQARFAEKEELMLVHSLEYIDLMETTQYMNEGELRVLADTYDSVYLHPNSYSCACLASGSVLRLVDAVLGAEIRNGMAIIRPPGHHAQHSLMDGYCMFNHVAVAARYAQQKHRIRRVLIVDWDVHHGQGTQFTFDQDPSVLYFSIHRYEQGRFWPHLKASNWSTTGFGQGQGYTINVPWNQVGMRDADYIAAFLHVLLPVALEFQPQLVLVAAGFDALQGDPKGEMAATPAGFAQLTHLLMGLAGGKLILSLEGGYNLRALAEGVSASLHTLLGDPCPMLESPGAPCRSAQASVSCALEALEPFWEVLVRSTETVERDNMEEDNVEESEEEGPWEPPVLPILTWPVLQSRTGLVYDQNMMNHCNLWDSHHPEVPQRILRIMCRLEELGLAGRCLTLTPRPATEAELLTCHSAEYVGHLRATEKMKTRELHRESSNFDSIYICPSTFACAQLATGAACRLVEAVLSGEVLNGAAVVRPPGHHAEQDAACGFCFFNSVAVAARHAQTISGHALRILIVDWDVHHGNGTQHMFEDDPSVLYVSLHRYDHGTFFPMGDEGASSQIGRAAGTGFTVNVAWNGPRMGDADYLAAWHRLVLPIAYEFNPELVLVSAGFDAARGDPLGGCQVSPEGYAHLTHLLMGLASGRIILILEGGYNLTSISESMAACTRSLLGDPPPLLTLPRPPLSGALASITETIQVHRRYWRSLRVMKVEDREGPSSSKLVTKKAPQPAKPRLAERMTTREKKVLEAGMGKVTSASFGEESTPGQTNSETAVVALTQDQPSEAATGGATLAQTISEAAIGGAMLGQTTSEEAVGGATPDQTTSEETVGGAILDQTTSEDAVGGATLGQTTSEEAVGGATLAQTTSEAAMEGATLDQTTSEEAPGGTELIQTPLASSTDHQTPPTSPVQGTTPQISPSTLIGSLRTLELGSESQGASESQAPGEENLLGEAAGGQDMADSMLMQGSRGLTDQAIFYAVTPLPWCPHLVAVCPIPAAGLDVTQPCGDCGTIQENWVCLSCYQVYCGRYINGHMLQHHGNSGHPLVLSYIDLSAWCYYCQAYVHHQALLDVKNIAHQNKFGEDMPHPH
Kind of test: Inhibition of C-terminal FLAG-tagged human recombinant full length HDAC6 expressed in baculovirus expression system using Boc-Lys(Ac)-AMC as substrate preincubated with enzyme for 15 mins followed by substrate addition and measured after 60 mins by fluorescence based analysis.

The test system of the next test is A549. Kind of test: Antiproliferative activity against human A549 cells assessed as inhibition of cell growth incubated for 72 hrs by MTT assay. It counts as functional, cell-based. To be noted: A549, 72 h. A general note: Formazan colour is commonly taken as a measure of viable cells.
Another test concerns SF-268. Kind of test: Antiproliferative activity against human SF-268 cells assessed as inhibition of cell growth incubated for 72 hrs by MTT assay. It counts as functional, cell-based. To be noted: SF-268, 72 h.
A further test addresses Histone deacetylase 3 (Homo sapiens, UniProt O15379). Kind of test: Inhibition of human recombinant HDAC3 using Ac-Leu-Gly-Lys(Ac)-AMC as substrate preincubated with enzyme for 30 mins followed by substrate addition and measured after 90 mins by fluorescence based analysis.
The next test concerns the target T2, Histone deacetylase 8 (Homo sapiens, UniProt Q9BY41).
T2 sequence (Q9BY41 whole entry): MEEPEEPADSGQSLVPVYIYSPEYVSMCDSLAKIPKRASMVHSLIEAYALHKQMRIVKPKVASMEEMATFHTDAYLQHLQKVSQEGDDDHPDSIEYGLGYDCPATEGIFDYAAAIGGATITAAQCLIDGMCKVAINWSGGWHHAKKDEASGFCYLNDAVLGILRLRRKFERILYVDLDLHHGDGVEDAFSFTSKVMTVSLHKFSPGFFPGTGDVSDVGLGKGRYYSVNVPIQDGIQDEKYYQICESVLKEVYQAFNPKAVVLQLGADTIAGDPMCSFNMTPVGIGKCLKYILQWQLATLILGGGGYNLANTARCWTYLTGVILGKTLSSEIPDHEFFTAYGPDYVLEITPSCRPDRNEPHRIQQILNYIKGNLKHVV
As to the kind of experiment: Inhibition of C-terminal His-tagged human recombinant full length HDAC8 (1 to 377 residues) expressed in Sf9 cells using Ac-Leu-Gly-Lys(trifluoroAc)-AMC as substrate preincubated with enzyme for 30 mins followed by substrate addition and measured after 90 mins by fluorescence based analysis.

The target in a further test is Histone deacetylase 4 (Homo sapiens, UniProt P56524). As to the kind of experiment: Inhibition of N-terminal GST-tagged/C-terminal His tagged human recombinant HDAC4 (627 to 1084 residues) expressed in baculovirus-infected Sf9 cells using Ac-Leu-Gly-Lys(trifluoroAc)-AMC as substrate preincubated with enzyme for 15 mins followed by substrate addition and measured after 60 mins by fluorescence based analysis.
Chain of Histone deacetylase 4 (P56524 whole entry, the tested form may be a part): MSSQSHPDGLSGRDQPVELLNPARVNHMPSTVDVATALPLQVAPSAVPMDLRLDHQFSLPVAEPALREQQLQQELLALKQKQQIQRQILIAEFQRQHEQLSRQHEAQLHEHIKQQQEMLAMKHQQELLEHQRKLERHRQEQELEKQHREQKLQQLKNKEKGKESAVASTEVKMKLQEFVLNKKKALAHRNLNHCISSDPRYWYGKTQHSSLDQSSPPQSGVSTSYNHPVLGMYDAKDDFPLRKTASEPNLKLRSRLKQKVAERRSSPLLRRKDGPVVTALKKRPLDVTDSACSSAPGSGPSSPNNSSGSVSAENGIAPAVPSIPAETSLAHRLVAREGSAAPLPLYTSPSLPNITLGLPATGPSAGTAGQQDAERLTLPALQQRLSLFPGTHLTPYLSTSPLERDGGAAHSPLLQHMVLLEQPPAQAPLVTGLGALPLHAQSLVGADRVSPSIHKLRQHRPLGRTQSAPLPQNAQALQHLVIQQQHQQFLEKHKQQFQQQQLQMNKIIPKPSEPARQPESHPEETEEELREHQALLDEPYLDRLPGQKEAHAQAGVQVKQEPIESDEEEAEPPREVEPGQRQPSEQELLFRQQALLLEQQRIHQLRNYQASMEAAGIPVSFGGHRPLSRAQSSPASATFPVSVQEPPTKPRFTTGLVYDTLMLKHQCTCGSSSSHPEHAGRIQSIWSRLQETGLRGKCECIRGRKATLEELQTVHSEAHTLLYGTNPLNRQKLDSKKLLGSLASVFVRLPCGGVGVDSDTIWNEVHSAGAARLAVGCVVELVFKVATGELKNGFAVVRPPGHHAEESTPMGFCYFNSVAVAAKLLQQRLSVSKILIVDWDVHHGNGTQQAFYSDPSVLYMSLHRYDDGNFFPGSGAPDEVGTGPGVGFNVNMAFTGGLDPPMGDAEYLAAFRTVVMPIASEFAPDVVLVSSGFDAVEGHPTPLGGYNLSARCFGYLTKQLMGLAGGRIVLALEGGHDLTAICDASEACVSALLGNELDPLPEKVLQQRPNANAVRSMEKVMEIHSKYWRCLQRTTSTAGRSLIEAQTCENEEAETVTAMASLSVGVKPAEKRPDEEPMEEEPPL

The subject of another test is Caco-2. As to the kind of experiment: Antiproliferative activity against human Caco-2 cells assessed as inhibition of cell growth incubated for 72 hrs by MTT assay. Conditions: Caco-2, 72 h. It counts as functional, cell-based.

Chain of Histone deacetylase 1 (Q13547 whole entry): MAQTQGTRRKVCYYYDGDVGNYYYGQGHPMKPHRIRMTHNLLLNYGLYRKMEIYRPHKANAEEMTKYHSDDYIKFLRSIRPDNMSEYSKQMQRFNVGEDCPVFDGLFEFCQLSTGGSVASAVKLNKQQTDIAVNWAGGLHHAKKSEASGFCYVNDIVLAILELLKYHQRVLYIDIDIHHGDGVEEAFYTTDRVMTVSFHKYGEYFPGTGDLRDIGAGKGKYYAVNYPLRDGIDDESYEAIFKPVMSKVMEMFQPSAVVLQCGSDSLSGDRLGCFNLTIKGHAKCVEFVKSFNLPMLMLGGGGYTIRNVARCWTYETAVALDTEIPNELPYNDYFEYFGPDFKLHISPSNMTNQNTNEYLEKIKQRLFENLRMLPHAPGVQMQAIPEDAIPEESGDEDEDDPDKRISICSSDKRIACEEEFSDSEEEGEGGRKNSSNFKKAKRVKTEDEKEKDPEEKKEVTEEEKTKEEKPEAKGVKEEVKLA
Chain of Histone deacetylase 3 (O15379 whole entry): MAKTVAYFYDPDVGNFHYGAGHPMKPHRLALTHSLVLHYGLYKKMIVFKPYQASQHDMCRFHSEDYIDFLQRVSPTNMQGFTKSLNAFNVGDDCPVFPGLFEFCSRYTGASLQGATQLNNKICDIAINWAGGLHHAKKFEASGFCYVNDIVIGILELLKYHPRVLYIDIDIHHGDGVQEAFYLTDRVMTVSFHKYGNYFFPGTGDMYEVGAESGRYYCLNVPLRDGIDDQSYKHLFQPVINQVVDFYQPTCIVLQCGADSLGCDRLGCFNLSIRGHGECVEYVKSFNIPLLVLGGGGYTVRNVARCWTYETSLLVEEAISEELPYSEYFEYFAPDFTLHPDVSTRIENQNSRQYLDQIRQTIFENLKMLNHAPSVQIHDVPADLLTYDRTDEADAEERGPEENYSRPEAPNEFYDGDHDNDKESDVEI

`Nc1ccccc1NC(=O)c1ccc(COc2ccc(CNC(=O)[C@H]3CCCN3Cc3ccccc3)cc2)cc1`: the pIC50 (in general, −log10 of the IC50, conventionally taken in molar units) was 7.03 on Histone deacetylase 1; 7.08 at Histone deacetylase 2; under 4.00 in test [1]; 5.33 in the test on A549; 5.51 in the test on SF-268.

Turning to `O=C(O)c1ccc(COc2ccc(CNC(=O)[C@@H]3CCC(=O)N3Cc3ccc(Br)cc3)cc2)cc1`, the pIC50 at Histone deacetylase 1 was under 5.00; in [1], under 5.00; in the test on A549 it was under 4.60; in the test on SF-268 it was under 4.60.

Regarding `CC(C)(C)OC(=O)NCc1ccc(OCc2ccc(C(=O)Nc3ccccc3N)cc2)cc1`, the pIC50 at Histone deacetylase 1 was 5.77; in test [1], under 5.00; in the test with A549, 4.84; in the test with SF-268, 5.07.

Regarding `O=C(Nc1ccccc1)c1ccc(COc2ccc(CNC(=O)[C@@H]3CCC(=O)N3Cc3ccccc3)cc2)cc1`, the pIC50 on Histone deacetylase 1 is under 5.00; in test [1] it was under 5.00; in the test on A549, under 4.60; in the test with SF-268, under 4.60.

For the molecule `Nc1ccccc1NC(=O)c1ccc(COc2ccc(CNC(=O)[C@@H]3CCCN3C(=O)OCc3ccccc3)cc2)cc1`, the pIC50 at Histone deacetylase 1 was 6.69; in test [1] it was under 5.00; in the test on A549, under 4.60; in the test with SF-268, 4.90.

In the case of `Nc1ccccc1NC(=O)c1ccc(COc2ccc(CNC(=O)[C@@H]3CCCN3C(=O)c3ccccc3)cc2)cc1`, the pIC50 on Histone deacetylase 1 is 6.67; in test [1] it was under 5.00; with A549, 4.80; in the test with SF-268, 5.04.

As to `NCc1ccc(OCc2ccc(C(=O)Nc3ccccc3N)cc2)cc1`, the pIC50 is 7.00 on Histone deacetylase 1; 7.28 on Histone deacetylase 3; under 5.00 in test [1]; under 5.00 on Histone deacetylase 8; under 4.00 at Histone deacetylase 4; under 4.60 in the test with A549. Also, the pIC50 with SF-268 was 5.07.

Regarding `Nc1ccccc1NC(=O)c1ccc(COc2ccc(CNC(=O)[C@@H]3CCCN3)cc2)cc1`, the pIC50 is 7.26 on Histone deacetylase 1; 7.14 on Histone deacetylase 2; 7.21 on Histone deacetylase 3; under 4.00 in test [1]; under 5.00 at Histone deacetylase 8; under 4.00 on Histone deacetylase 4. In addition, the pIC50 with A549 is 5.00; with SF-268 it was 5.48.

In the case of `O=C(NO)c1ccc(COc2ccc(CNC(=O)[C@@H]3CCC(=O)N3Cc3ccccc3)cc2)cc1`, the pIC50 at Histone deacetylase 1 was 5.70; in test [1], 6.84; in the test with A549 it was under 4.60.

As to `O=C(NCc1ccc(OCc2ccc(B(O)O)cc2)cc1)[C@@H]1CCC(=O)N1Cc1ccccc1`, the pIC50 was under 5.00 at Histone deacetylase 1, under 5.00 in test [1], under 4.60 in the test on A549 and under 4.60 in the test on SF-268.

Consider `O=C(O)c1ccc(COc2ccc(CNC(=O)[C@@H]3CCC(=O)N3Cc3ccccc3)cc2)cc1`, for which the pIC50 at Histone deacetylase 1 was under 5.00; in test [1] it was under 5.00; with A549 it was under 4.60; in the test on SF-268 it was under 4.60.

As for `Nc1ccccc1NC(=O)c1ccc(COc2ccc(CNC(=O)[C@@H]3CCCN3Cc3ccc(F)cc3)cc2)cc1`, the pIC50 is 6.89 on Histone deacetylase 1; 6.71 on Histone deacetylase 2; under 4.00 in test [1]; 5.29 with A549; 5.32 in the test on SF-268.

Take `Nc1ccccc1NC(=O)c1ccc(COc2ccc(CNC(=O)[C@@H]3CCC(=O)N3Cc3ccc(Br)cc3)cc2)cc1`: the pIC50 was 7.29 at Histone deacetylase 1; 7.09 on Histone deacetylase 2; under 4.00 in test [1]; 5.04 in the test with A549; 5.18 in the test with SF-268.

Consider `O=C(NCc1ccccc1)c1ccc(COc2ccc(CNC(=O)[C@@H]3CCC(=O)N3Cc3ccccc3)cc2)cc1`, for which the pIC50 on Histone deacetylase 1 was under 5.00; in [1], under 5.00; in the test on A549, under 4.60; with SF-268 it was under 4.60.

Consider `Nc1ccccc1NC(=O)c1ccc(COc2ccc(CN3C(=O)CC[C@H]3CC(=O)NCc3ccccc3)cc2)cc1`, for which the pIC50 at Histone deacetylase 1 was 7.08; on Histone deacetylase 2 it was 6.66; in test [1], under 4.00; with A549 it was 4.82; with SF-268, 5.15.

In the case of `O=C(O)c1ccc(COc2ccc(CNC(=O)[C@@H]3CCCN3Cc3ccccc3)cc2)cc1`, the pIC50 at Histone deacetylase 1 was under 5.00; in test [1] it was under 5.00; with A549, under 4.60; in the test on SF-268, under 4.60.

With `Nc1ccccc1NC(=O)c1ccc(COc2ccc(CNC(=O)[C@@H]3CCC(=O)N3Cc3ccc(F)cc3)cc2)cc1`, the pIC50 is 6.67 at Histone deacetylase 1; 6.46 at Histone deacetylase 2; under 4.00 in [1]; 5.16 with A549; 5.19 in the test on SF-268; 5.72 in the test on Caco-2.

Take `Nc1ccccc1NC(=O)c1ccc(COc2ccc(CNC(=O)c3ccccn3)cc2)cc1`: the pIC50 is 6.70 on Histone deacetylase 1, under 5.00 in test [1], 5.17 in the test on A549 and 5.01 in the test with SF-268.

In the case of `Nc1ccccc1NC(=O)c1ccc(COc2ccc(CNC(=O)c3cc4ccccc4[nH]3)cc2)cc1`, the pIC50 at Histone deacetylase 1 is 6.74; in [1] it was under 5.00; with A549, 5.28; in the test on SF-268, 4.78.
